Assay results from patent US12077503B2, “Substituted cyclic amides and their use as herbicides” (FMC CORPORATION, priority 2015, dated 2024).

Key:
Format in all cases: in vivo
[1] = system: giant foxtail (Setaria faberii); test: Test A preemergence; conditions: Preemergence; for Plant response rating, Foxtail, Giant: 125 g ai/ha, visual injury after approximately 10 d, 0 to 100 scale where 0 is no effect and 100 is complete control; for Foxtail, Giant plant response rating (0 to 100 scale, 0 is no effect, 100 is complete control): 500 g ai/ha, visual injury approx. 10 d
Excerpt: (§1) Seeds of plant species selected from barnyardgrass (Echinochloa crus-galli), Kochia (Kochia scoparia), ragweed (common ragweed, Ambrosia elatior), ryegrass, Italian (Italian ryegrass, Lolium multiflorum), crabgrass, large (Digitaria sanguinalis), giant foxtail (Setaria faberii), green foxtail (Setaria viridis), morningglory (Ipomoea spp.), pigweed (Amaranthus retroflexus), velvetleaf (Abutilon theophrasti), wheat (Triticum aestivum), and corn (Zea mays) were planted into a blend of loam soil and sand and treated preemergence with a directed soil spray using test chemicals formulated in anon-phytotoxic solvent mixture which included a surfactant.
(§2) At the same time, plants selected from these crop and weed species and also blackgrass (Alopecurus myosuroides), and Galium (catchweed bedstraw, Galium aparine) were planted in pots containing the same blend of loam soil and sand and treated with postemergence applications of test chemicals formulated in the same manner. Plants ranged in height from 2 to 10 cm and were in the one- to two-leaf stage for the postemergence treatment. Treated plants and untreated controls were maintained in a greenhouse for approximately 10 d, after which time all treated plants were compared to untreated controls and visually evaluated for injury. Plant response ratings, summarized in Table A, are based on a 0 to 100 scale where 0 is no effect and 100 is complete control. A dash (-) response means no test result.

[2] = system: barnyardgrass (Echinochloa crus-galli); test: Test A preemergence; conditions: Preemergence; for Plant response rating, Barnyardgrass: 125 g ai/ha, visual injury after approximately 10 d, 0 to 100 scale where 0 is no effect and 100 is complete control; for Barnyardgrass plant response rating (0 to 100 scale, 0 is no effect, 100 is complete control): 500 g ai/ha, visual injury approx. 10 d
Excerpt: as §1, §2

[3] = system: ragweed (common ragweed, Ambrosia elatior); test: Test A preemergence; conditions: Preemergence; for Plant response rating, Ragweed: 125 g ai/ha, visual injury after approximately 10 d, 0 to 100 scale where 0 is no effect and 100 is complete control; for Ragweed plant response rating (0 to 100 scale, 0 is no effect, 100 is complete control): 500 g ai/ha, visual injury approx. 10 d
Excerpt: as §1, §2

[4] = system: pigweed (Amaranthus retroflexus); test: Test A preemergence; conditions: Preemergence; for Plant response rating, Pigweed: 125 g ai/ha, visual injury after approximately 10 d, 0 to 100 scale where 0 is no effect and 100 is complete control; for Pigweed plant response rating (0 to 100 scale, 0 is no effect, 100 is complete control): 500 g ai/ha, visual injury approx. 10 d
Excerpt: as §1, §2

[5] = system: ryegrass, Italian (Italian ryegrass, Lolium multiflorum); test: Test A preemergence; conditions: Preemergence; for Plant response rating, Ryegrass, Italian: 125 g ai/ha, visual injury after approximately 10 d, 0 to 100 scale where 0 is no effect and 100 is complete control; for Ryegrass, Italian plant response rating (0 to 100 scale, 0 is no effect, 100 is complete control): 500 g ai/ha, visual injury approx. 10 d
Excerpt: as §1, §2

Kochia (Kochia scoparia) [6] = test: Test A preemergence; conditions: Preemergence; for Plant response rating, Kochia: 125 g ai/ha, visual injury after approximately 10 d, 0 to 100 scale where 0 is no effect and 100 is complete control; for Kochia plant response rating (0 to 100 scale, 0 is no effect, 100 is complete control): 500 g ai/ha, visual injury approx. 10 d
Excerpt: as §1, §2

[7] = system: giant foxtail (Setaria faberii); test: Test A postemergence
Excerpt: as §1, §2

[8] = system: barnyardgrass (Echinochloa crus-galli); test: Test A postemergence
Excerpt: as §1, §2

[9] = system: ragweed (common ragweed, Ambrosia elatior); test: Test A postemergence
Excerpt: as §1, §2

[10] = system: pigweed (Amaranthus retroflexus); test: Test A postemergence
Excerpt: as §1, §2

corn (Zea mays) = test: Test A postemergence
Excerpt: as §1, §2

[11] = system: Galium (catchweed bedstraw, Galium aparine); test: Test A postemergence
Excerpt: as §1, §2

[12] = system: ryegrass, Italian (Italian ryegrass, Lolium multiflorum); test: Test A postemergence
Excerpt: as §1, §2

[13] = system: blackgrass (Alopecurus myosuroides); test: Test A postemergence
Excerpt: as §1, §2

[14] = system: wheat (Triticum aestivum); test: Test A postemergence
Excerpt: as §1, §2

Kochia (Kochia scoparia) [15] = test: Test A postemergence
Excerpt: as §1, §2

[16] = 125 g ai/ha, postemergence, visual rating after approx. 10 d, 0 to 100 scale (0 no effect, 100 complete control)
[17] = Postemergence, 500 g ai/ha, 0 to 100 scale where 0 is no effect and 100 is complete control

Row | Compound | Plant response rating, Foxtail, Giant [1] | Foxtail, Giant plant response rating (0 to 100 scale, 0 is no effect, 100 is complete control) [1] | Plant response rating, Barnyardgrass [2] | Barnyardgrass plant response rating (0 to 100 scale, 0 is no effect, 100 is complete control) [2] | Plant response rating, Ragweed [3] | Ragweed plant response rating (0 to 100 scale, 0 is no effect, 100 is complete control) [3] | Plant response rating, Pigweed [4] | Pigweed plant response rating (0 to 100 scale, 0 is no effect, 100 is complete control) [4] | Plant response rating, Ryegrass, Italian [5] | Ryegrass, Italian plant response rating (0 to 100 scale, 0 is no effect, 100 is complete control) [5] | Plant response rating, Kochia (Kochia (Kochia scoparia) [6]) | Kochia plant response rating (0 to 100 scale, 0 is no effect, 100 is complete control) (Kochia (Kochia scoparia) [6]) | Plant response rating, Foxtail, Giant [7, 16] | Plant response rating, Foxtail, Giant [7, 17] | Plant response rating, Barnyardgrass [8, 16] | Plant response rating, Barnyardgrass [8, 17] | Plant response rating, Ragweed [9, 16] | Plant response rating, Ragweed [9, 17] | Plant response rating, Pigweed [10, 16] | Plant response rating, Pigweed [10, 17] | also measured
1 | CN1CC(c2ccc(Br)cc2)C(C(=O)Nc2ccc(F)cc2F)C1=O (stereo not drawn) [Compound 566] | 90 | 100 | 90 | 100 | 60 | 90 | 80 | 90 | 20 | 70 | 70 | 80 | 90 | 90 | 90 | 90 | 0 | 40 | 30 | 60 | Plant response rating, Corn (corn (Zea mays); [16]): 0; Plant response rating, Corn (corn (Zea mays); [17]): 40; Plant response rating, Galium [11, 16]: 60; Plant response rating, Galium [11, 17]: 80; Plant response rating, Ryegrass, Italian [12, 16]: 30; Plant response rating, Ryegrass, Italian [12, 17]: 60; Plant response rating, Blackgrass [13, 16]: 20; Plant response rating, Blackgrass [13, 17]: 70; Plant response rating, Wheat [14, 16]: 0; Plant response rating, Wheat [14, 17]: 40; Plant response rating, Kochia (Kochia (Kochia scoparia) [15]; [16]): 80; Plant response rating, Kochia (Kochia (Kochia scoparia) [15]; [17]): 80
2 | CCc1cccc(C2CN(C)C(=O)C2C(=O)Nc2ccc(F)cc2F)c1 (stereo not drawn) [Compound 570] | 100 | 100 | 100 | 100 | 0 | 0 | 40 | 70 | 60 | 90 | 60 | 80 | 90 | 90 | 100 | 100 | 0 | 0 | 20 | 20 | Plant response rating, Corn (corn (Zea mays); [16]): 60; Plant response rating, Corn (corn (Zea mays); [17]): 80; Plant response rating, Galium [11, 16]: 50; Plant response rating, Galium [11, 17]: 60; Plant response rating, Ryegrass, Italian [12, 16]: 50; Plant response rating, Ryegrass, Italian [12, 17]: 80; Plant response rating, Blackgrass [13, 16]: 60; Plant response rating, Blackgrass [13, 17]: 80; Plant response rating, Wheat [14, 16]: 30; Plant response rating, Wheat [14, 17]: 60; Plant response rating, Kochia (Kochia (Kochia scoparia) [15]; [16]): 50; Plant response rating, Kochia (Kochia (Kochia scoparia) [15]; [17]): 70
3 | CN1CC(c2cccc(C(F)(F)F)c2)C(C(=O)Nc2ccc(F)cc2F)C1=O (stereo not drawn) [Compound 571] | 90 | 100 | 90 | 90 | 0 | 0 | 30 | 80 | 60 | 80 | 60 | 80 | 90 | 90 | 90 | 100 | 0 | 0 | 20 | 30 | Plant response rating, Corn (corn (Zea mays); [16]): 60; Plant response rating, Corn (corn (Zea mays); [17]): 80; Plant response rating, Galium [11, 16]: 50; Plant response rating, Galium [11, 17]: 70; Plant response rating, Ryegrass, Italian [12, 16]: 60; Plant response rating, Ryegrass, Italian [12, 17]: 60; Plant response rating, Blackgrass [13, 16]: 70; Plant response rating, Blackgrass [13, 17]: 80; Plant response rating, Wheat [14, 16]: 60; Plant response rating, Wheat [14, 17]: 70; Plant response rating, Kochia (Kochia (Kochia scoparia) [15]; [16]): 30; Plant response rating, Kochia (Kochia (Kochia scoparia) [15]; [17]): 60
